Values joined by “and” are separate entries in the source; they are usually repeats but may differ in a detail not shown here. Equal values may be shown once. Inconclusive results and toxic doses are left out. How the source made its calls: active means survival T/C of 150% or more; inactive means T/C below 125% in these data.
System: P388 leukemia ip, CD2F1 mice, survival T/C
Assay: NCI In Vivo Anticancer Drug Screen. Data for tumor model P388 Leukemia (intraperitoneal) in CD2F1 (CDF1) mice
Details: endpoint: median survival time, higher = longer survival
Outline: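 Mice carrying the transplanted tumor received test compound or vehicle. Survival was recorded in each group, and the value is the treated-group measurement divided by that of the vehicle-treated control group.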

[1] = dose: 100.0 mg/kg/injection, schedule: Q01DX009 (ip), vehicle: saline with Tween-80
[2] = dose: 200.0 mg/kg/injection, schedule: Q01DX009 (ip), vehicle: saline with Tween-80
[3] = dose: 50.0 mg/kg/injection, schedule: Q01DX009 (ip), vehicle: Klucel (hydroxypropylcellulose) (HPC)
[4] = dose: 100.0 mg/kg/injection, schedule: Q01DX009 (ip), vehicle: Klucel (hydroxypropylcellulose) (HPC)
[5] = dose: 200.0 mg/kg/injection, schedule: Q01DX009 (ip), vehicle: Klucel (hydroxypropylcellulose) (HPC)
[6] = dose: 60.0 mg/kg/injection, schedule: Q01DX005 (ip), vehicle: saline with Tween-80
[7] = dose: 120.0 mg/kg/injection, schedule: Q01DX005 (ip), vehicle: saline with Tween-80
[8] = dose: 240.0 mg/kg/injection, schedule: Q01DX005 (ip), vehicle: saline with Tween-80
[9] = dose: 50.0 mg/kg/injection, schedule: Q01DX005 (ip), vehicle: saline with Tween-80
[10] = dose: 100.0 mg/kg/injection, schedule: Q01DX005 (ip), vehicle: saline with Tween-80
[11] = dose: 200.0 mg/kg/injection, schedule: Q01DX005 (ip), vehicle: saline with Tween-80
[12] = dose: 100.0 mg/kg/injection, schedule: Q01DX001 (ip), vehicle: saline
[13] = dose: 200.0 mg/kg/injection, schedule: Q01DX001 (ip), vehicle: saline
[14] = dose: 400.0 mg/kg/injection, schedule: Q01DX001 (ip), vehicle: saline
[15] = dose: 50.0 mg/kg/injection, schedule: Q01DX005 (ip), vehicle: Klucel (hydroxypropylcellulose) (HPC)
[16] = dose: 100.0 mg/kg/injection, schedule: Q01DX005 (ip), vehicle: Klucel (hydroxypropylcellulose) (HPC)
[17] = dose: 200.0 mg/kg/injection, schedule: Q01DX005 (ip), vehicle: Klucel (hydroxypropylcellulose) (HPC)
[18] = dose: 25.0 mg/kg/injection, schedule: Q04DX003 (ip), vehicle: saline
[19] = dose: 50.0 mg/kg/injection, schedule: Q04DX003 (ip), vehicle: saline
[20] = dose: 100.0 mg/kg/injection, schedule: Q04DX003 (ip), vehicle: saline

Measured: T/C

Cc1ccc2c(c1)Sc1ccc3ccccc3c1N2
inactive: [1] 100 % of control | dose: 100.0 mg/kg/injection, schedule: Q04DX003 (ip), vehicle: saline with Tween-80 90 % of control | [2] 109 % of control | dose: 200.0 mg/kg/injection, schedule: Q04DX003 (ip), vehicle: saline with Tween-80 100 % of control | dose: 400.0 mg/kg/injection, schedule: Q01DX009 (ip), vehicle: saline with Tween-80 113 % of control | dose: 400.0 mg/kg/injection, schedule: Q04DX003 (ip), vehicle: saline with Tween-80 100 % of control

C/C=C/C[P+](C)(c1ccccc1)c1ccccc1
inactive: dose: 0.75 mg/kg/injection, schedule: Q01DX009 (ip), vehicle: saline 104 % of control

Cc1nn(C(=O)c2ccncc2)c(C)c1N=Nc1ccc(-c2ccc(N)cc2)cc1
inactive: [3] 99 % of control | [4] 90 % of control | [5] 90 % of control

CN1C2CCCC1CC1(C2)NC(=O)NC1=O (centres undefined)
inactive: dose: 50.0 mg/kg/injection, schedule: Q01DX009 (ip), vehicle: water 99 % of control | dose: 100.0 mg/kg/injection, schedule: Q01DX009 (ip), vehicle: water 100 % of control

COc1ccc(C(=O)CC2(O)C(=O)Nc3ccccc32)cc1O (centres undefined)
inactive: [6] 105 % of control | [7] 102 % of control | [8] 102 % of control

COc1cc(N=Nc2cc(CN(C)C)cc3ncccc23)c(OC)cc1N=Nc1ccc([N+](=O)[O-])cc1
inactive: dose: 12.5 mg/kg/injection, schedule: Q01DX005 (ip), vehicle: saline with Tween-80 98 % of control | dose: 12.5 mg/kg/injection, schedule: Q01DX009 (ip), vehicle: Klucel (hydroxypropylcellulose) (HPC) 93 % of control | dose: 25.0 mg/kg/injection, schedule: Q01DX005 (ip), vehicle: saline with Tween-80 109 % of control | dose: 25.0 mg/kg/injection, schedule: Q01DX009 (ip), vehicle: Klucel (hydroxypropylcellulose) (HPC) 91 % of control | dose: 38.25 mg/kg/injection, schedule: Q01DX009 (ip), vehicle: Klucel (hydroxypropylcellulose) (HPC) 102 % of control | [9] 100 % of control | [3] 120 % of control and 93 % of control | dose: 76.5 mg/kg/injection, schedule: Q01DX009 (ip), vehicle: Klucel (hydroxypropylcellulose) (HPC) 94 % of control | [10] 107 % of control | [4] 99 % of control and 115 % of control and 95 % of control | dose: 153.0 mg/kg/injection, schedule: Q01DX009 (ip), vehicle: Klucel (hydroxypropylcellulose) (HPC) 95 % of control | [11] 107 % of control | [5] 108 % of control and 93 % of control | dose: 306.0 mg/kg/injection, schedule: Q01DX009 (ip), vehicle: Klucel (hydroxypropylcellulose) (HPC) 110 % of control | dose: 400.0 mg/kg/injection, schedule: Q01DX005 (ip), vehicle: saline with Tween-80 109 % of control | dose: 400.0 mg/kg/injection, schedule: Q01DX009 (ip), vehicle: Klucel (hydroxypropylcellulose) (HPC) 102 % of control and 94 % of control

CCCCOP(=O)(O)SP(=O)(O)OCCCC
inactive: dose: 100.0 mg/kg/injection, schedule: Q01DX001 (ip), vehicle: Klucel (hydroxypropylcellulose) (HPC) 103 % of control | [12] 103 % of control and 106 % of control and 98 % of control | dose: 100.0 mg/kg/injection, schedule: Q04DX003 (ip), vehicle: suspension in saline 105 % of control | dose: 200.0 mg/kg/injection, schedule: Q01DX001 (ip), vehicle: Klucel (hydroxypropylcellulose) (HPC) 119 % of control | [13] 106 % of control and 98 % of control and 103 % of control | dose: 200.0 mg/kg/injection, schedule: Q04DX003 (ip), vehicle: suspension in saline 105 % of control | dose: 400.0 mg/kg/injection, schedule: Q01DX001 (ip), vehicle: Klucel (hydroxypropylcellulose) (HPC) 104 % of control | [14] 106 % of control and 103 % of control and 94 % of control | dose: 400.0 mg/kg/injection, schedule: Q04DX003 (ip), vehicle: suspension in saline 110 % of control

CCCCN(CCCC)c1ccc(C(=N)c2ccc(N(CCCC)CCCC)cc2)cc1
inactive: dose: 6.25 mg/kg/injection, schedule: Q01DX005 (ip), vehicle: Klucel (hydroxypropylcellulose) (HPC) 108 % of control | dose: 12.5 mg/kg/injection, schedule: Q01DX005 (ip), vehicle: Klucel (hydroxypropylcellulose) (HPC) 108 % of control | dose: 25.0 mg/kg/injection, schedule: Q01DX005 (ip), vehicle: Klucel (hydroxypropylcellulose) (HPC) 117 % of control

CCN(CC)c1cc(C)c(Cc2c(OC)ccc3ccccc23)cc1C
inactive: [15] 92 % of control | [16] 92 % of control | [17] 99 % of control

O=C(O)/C=C/c1ccc([N+](=O)[O-])cc1
inactive: [1] 100 % of control | [2] 105 % of control

CNC(=O)c1ccccc1NC(=O)c1ccccc1[N+](=O)[O-]
inactive: dose: 100.0 mg/kg/injection, schedule: Q04DX002 (ip), vehicle: Klucel (hydroxypropylcellulose) (HPC) 102 % of control | dose: 200.0 mg/kg/injection, schedule: Q04DX002 (ip), vehicle: Klucel (hydroxypropylcellulose) (HPC) 107 % of control | dose: 400.0 mg/kg/injection, schedule: Q04DX002 (ip), vehicle: Klucel (hydroxypropylcellulose) (HPC) 103 % of control

C=C1CC2(CCCCC2C)OC1=O (centres undefined)
inactive: [12] 101 % of control | [13] 101 % of control | [14] 100 % of control

Clc1c(Br)c(-c2ccccc2)nc2ccccc12
inactive: [9] 108 % of control | [10] 110 % of control | [11] 108 % of control

CCOC(=O)/C(=C/c1ncnc2nc[nH]c12)C(F)(F)C(=O)OCC
inactive: [18] 97 % of control | [19] 100 % of control | [20] 99 % of control

C/C=C(\C)C(=O)N/N=C/c1cccnc1
inactive: [15] 103 % of control | [16] 103 % of control | [17] 103 % of control

C#CCSc1ncnc2nc[nH]c12
inactive: dose: 25.0 mg/kg/injection, schedule: Q01DX009 (ip), vehicle: saline 95 % of control | [18] 104 % of control | dose: 50.0 mg/kg/injection, schedule: Q01DX009 (ip), vehicle: saline 109 % of control | [19] 100 % of control | dose: 100.0 mg/kg/injection, schedule: Q01DX009 (ip), vehicle: saline 86 % of control | [20] 100 % of control

O=C(CCCl)Nc1cccc(CCC(=O)c2cccc(NC(=O)CCCl)c2)c1
inactive: dose: 15.0 mg/kg/injection, schedule: Q01DX005 (ip), vehicle: saline with Tween-80 103 % of control | dose: 30.0 mg/kg/injection, schedule: Q01DX005 (ip), vehicle: saline with Tween-80 103 % of control | [6] 102 % of control and 103 % of control | [7] 103 % of control | [8] 110 % of control

From PubChem BioAssay AID330 (DTP/NCI, 2004)
